Patent US9359347B2, “Inhibitors of Akt/PKB with anti-tumor activity” (University of South Florida, priority 2007, dated 2016)
pIC50: −log10 of the molar value.

Legend:
Akt [1] = assay: Immunoblotting with anti-phospho-Akt-S473 antibody in OVCAR3 cells; format: cell-based, human; settings: 3 hours, read-out: IC50, phosphorylation level of Akt (phospho-Akt-S473)
Procedure: The cells were treated with API-1 at indicated concentration for 2 hours and subjected to immunoblotting analysis with anti-phospho-Akt-S473 antibodies (top panel).
OVCAR3 cells, which express elevated levels of phosphor-Akt, were treated with different doses of API-1 for 3 hours.

PKA = assay: Immunoblotting of PKA phosphorylation in OVCAR3 cells; format: cell-based, human
Procedure: FIG. 2D is a graph showing the effect of API-1 on PKA, PKC and PDK kinase activity in living cells. OVCAR3 cells were treated with indicated concentration of API-1 for 1 hour. Cells were lysed and immunoblotted with indicated antibodies.

OVCAR3 = assay: Cell proliferation MTT assay, OVCAR3; format: cell-based, human; settings: OVCAR3, 24 hours
Procedure: (§1) The blots were reprobed with anti-actin antibody (bottom panel). FIGS. 4B and 4C are cell proliferation assays in which indicated cell lines were treated with different doses of API-1 for 24 hours and then analyzed with MTT assay. FIGS. 4D-4G show an apoptosis analysis in which cells were treated with API-1 and stained with annexin V and PI and analyzed by FACScan.
(§2) In vitro kinase was performed as previously described (Jiang et al. 2000). Cell survival was assayed with MTT (Sigma). Apoptosis was detected with annexin V (BD Biosciences), which was performed according to manufacture's instruction. Recombinant Akt and PDK1 were purchased from Upstate Biotechnology Inc.
(§3) Akt is a major pro-growth and pro-survival pathway.

OVCA8 = assay: Cell proliferation MTT assay, OVCA8; format: cell-based, human; settings: OVCA8, 24 hours
Procedure: as §1, §2, §3

MDA-MB-468 [2] = assay: Cell proliferation MTT assay, MDA-MB-468; format: cell-based, human; settings: MDA-MB-468, 24 hours
Procedure: as §1, §2, §3

MCF7 = assay: Cell proliferation MTT assay, MCF7; format: cell-based, human; settings: MCF7, 24 hours
Procedure: as §1, §2, §3

OVCAR5 = assay: Cell proliferation MTT assay, OVCAR5; format: cell-based, human; settings: OVCAR5, 24 hours
Procedure: as §1, §2, §3

MDA-MB-435s cells = assay: Cell proliferation MTT assay, MDA-MB-435s; format: cell-based, human; settings: 24 hours
Procedure: as §1, §2, §3

OVACAR3 = assay: Apoptosis analysis (annexin V and PI, FACScan), OVACAR3; format: cell-based, human
Procedure: as §1, §2, §3

MDA-MB-468 [3] = assay: Apoptosis analysis (annexin V and PI, FACScan), MDA-MB-468; format: cell-based, human; settings: MDA-MB-468, annexin V and PI
Procedure: as §1, §2, §3

OVCAR3 tumors = assay: Nude mouse tumor xenograft model, OVCAR3; format: in vivo, nude mice; settings: 10 mg/kg/day i.p.
Description: (§4) Tumor cells were subcutaneously injected into nude mice with low level of Akt cells on right side and elevated level of Akt cells on left side.

PANC1 tumors = assay: Nude mouse tumor xenograft model, PANC1; format: in vivo, nude mice; settings: 10 mg/kg/day i.p.
Description: as §4

[4] = Tolerability observations in xenograft mice; format: in vivo; settings: 10 mg/kg/day, data not shown
Procedure: Tumor cells were harvested, resuspended in PBS, and injected subcutaneous (s.c.) into the right and left flanks (2×10^6 cells/flank) of 8-week-old female nude mice as reported previously (Sun et al. 1999). When tumors reached about 100-150 mm^3, animals were randomized and dosed intraperitoneal (i.p.) with vehicle or drug daily. Control animals received dimethylsulfoxide (DMSO) (20%) vehicle and treated animals were injected with API-1 (10 mg/kg/day) in 20% DMSO.
Because API-1 inhibits Akt signaling and induces apoptosis and cell growth arrest in cancer cells with elevated levels of Akt (FIGS. 4A-4G), it was reasoned that the growth of tumors with elevated levels of Akt should be more sensitive to API-1 than that of tumors with low levels of Akt in nude mice. To this end, Akt-overexpressing cells (OVCAR3 and PANC-1) were s.c. implanted into the left flank, and those cell lines that express low levels of Akt (OVCAR5 and COLO357) were s.c. implanted into the right flank of mice. When the tumors reached an average size of about 100-150 mm^3, the animals were randomized and treated i.p. with either vehicle or API-1 (10 mg/kg/day). As illustrated in FIGS. 5A-5J, OVCAR3 and PANC1 tumors treated with vehicle control continued to grow. API-1 inhibited OVCAR3 and PANC1 tumor growth by 70% and 50%, respectively (FIGS. 5C-5F and 5G-5J). In contrast, API-1 had little effect on the growth of OVCAR5 and COLO357 cells in nude mice (FIGS. 5A-5J). At dose 10 mg/kg/day, API-1 had no effects on blood glucose level, body weight, activity and food intake of mice (data not shown).

Akt [5] = assay: Immunoblotting of Akt phosphorylation in treated tumor specimens; format: in vivo, nude mice; settings: 10 mg/kg/day
Description: Tumor cells were subcutaneously injected into nude mice with low level of Akt cells on right side and elevated level of Akt cells on left side. […] API-1 treated and untreated tumor specimens were lysed and immunoblotted with indicated antibodies.

Akt [6] = target: T1, Akt (Homo sapiens, UniProt P31749); assay: IGF-1 induced plasma membrane translocation of Akt in Myc-AKT1 transfected HeLa cells; format: cell-based; settings: Myc-AKT1, 30 min prior to IGF1 for 15 minutes
T1 construct: expressed in transfected cells; host or cells: HeLa
Procedure: HeLa cells were transfected on coverslips with Myc-AKT1, serum-starved overnight and then treated with (FIG. 6C) or without (FIG. 6B) AKT-SI1 for 30 min prior to stimulation with IGF1 for 15 minutes. Following fixation, cells were immuno-stained with the anti-Myc monoclonal antibody, followed by a FITC-conjugated secondary antibody to reveal the presence of the epitope-tagged protein in the cytosol or membrane (FIG. 6B). Cells without treatment with AKT-SI1 and IGF1 were used as control (FIG. 6A).

Akt downstream targets = assay: Phosphorylation of Akt downstream targets (FIG. 3C); format: cell-based
mTORC1 = mTORC1 (Homo sapiens, UniProt P42345); assay: Interference with mTORC1 complex (FIG. 3D)
mTORC2 = mTORC2 (Homo sapiens, UniProt P42345); assay: Interference with mTORC2 complex (FIG. 3D)
wild-type Myc-AKT1 [7] = target: T2, wild-type Myc-AKT1 (Homo sapiens, UniProt P31749); settings: wild-type Myc-AKT1 transfected HEK 293 cells
[8] = target: T3, constitutively active Myc-AKT1-E17K (Homo sapiens, UniProt P31749, E17K); settings: Myc-AKT1-E17K transfected HEK 293 cells
[9] = target: T3, constitutively active Myc-AKT1-E17K; assay: In vitro kinase assay of anti-Myc immunoprecipitates from Myc-AKT1-E17K transfected HEK293 cells; settings: HEK293, Histone H2B substrate
Procedure: (§5) Nevertheless, we compared their capability of inhibiting Akt. HEK293 cells were transfected with wild-type Myc-AKT1 (FIGS. 7B and 7C) and constitutively active Myc-AKT1-E17K (FIGS. 7D and 7E). Following 36 h incubation, cells were serum starved overnight. […] Immunoprecipitation was carried out with anti-Myc antibody and the immunoprecipitates were subjected to in vitro kinase assay using Histone H2B as substrate (top). […] The experiments were repeated three times.

wild-type Myc-AKT1 [10] = target: T2, wild-type Myc-AKT1; assay: In vitro kinase assay of anti-Myc immunoprecipitates from wild-type Myc-AKT1 transfected HEK293 cells; settings: wild-type Myc-AKT1, HEK293, 30 min then EGF 15 min, Histone H2B substrate
Procedure: as §5

T2 sequence (P31749 whole entry): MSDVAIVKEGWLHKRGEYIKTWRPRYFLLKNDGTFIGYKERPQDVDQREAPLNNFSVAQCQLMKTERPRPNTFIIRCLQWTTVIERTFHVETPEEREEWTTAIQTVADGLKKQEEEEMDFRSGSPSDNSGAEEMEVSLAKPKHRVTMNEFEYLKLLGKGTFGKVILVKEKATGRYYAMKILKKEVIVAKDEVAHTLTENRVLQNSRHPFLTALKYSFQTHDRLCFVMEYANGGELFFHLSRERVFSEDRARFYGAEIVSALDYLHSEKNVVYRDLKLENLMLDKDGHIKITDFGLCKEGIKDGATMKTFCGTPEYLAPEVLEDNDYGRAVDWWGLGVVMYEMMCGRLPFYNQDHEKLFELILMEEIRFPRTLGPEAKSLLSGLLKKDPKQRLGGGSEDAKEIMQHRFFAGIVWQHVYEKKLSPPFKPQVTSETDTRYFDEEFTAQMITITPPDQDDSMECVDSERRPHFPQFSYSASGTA
T3 sequence (P31749 whole entry E17K): as the sequence (P31749 whole entry) above, with E17K counted along it
T1 sequence (P31749 whole entry): as the sequence (P31749 whole entry) above

NC(=O)c1cn(C2OC(CO)C(O)C2O)c2ncnc(N)c2c1=O (stereo not shown) [API-1]
pIC50 (Akt [1]): ~6.10
phosphorylation levels of PKA (PKA): not inhibited
inhibition of cell proliferation (OVCAR3): 50-70%
inhibition of cell proliferation (OVCA8): 50-70%
inhibition of cell proliferation (MDA-MB-468 [2]): 50-70%
inhibition of cell proliferation (MCF7): 50-70%
inhibition of cell proliferation (OVCAR5): 10-30%
inhibition of cell proliferation (MDA-MB-435s cells): 10-30%
induction of apoptosis (OVACAR3): 9 fold
induction of apoptosis (MDA-MB-468 [3]): 4.6 fold
inhibition of tumor growth (OVCAR3 tumors): 70%
inhibition of tumor growth (PANC1 tumors): 50%
activity [4]: no effects
blood glucose level [4]: no effects
body weight [4]: no effects
food intake [4]: no effects
reduction of phosphorylation levels of Akt in treated tumor samples (Akt [5]): about 70%

API-1
IGF-1 induced plasma membrane translocation of Akt (Akt [6]): inhibits
phosphorylation of Akt downstream targets (Akt downstream targets): inhibited
interference with mTORC1 complex (mTORC1): did not interfere
interference with mTORC2 complex (mTORC2): did not interfere
phospho-Akt levels (S473) (wild-type Myc-AKT1 [7]): inhibit
phospho-Akt levels (S473) [8]: inhibit
inhibition of Akt kinase activity, compared with API-2/TCN [9]: more potent than API-2/TCN
inhibition of Akt kinase activity, compared with API-2/TCN (wild-type Myc-AKT1 [10]): more potent than API-2/TCN
